Biological target: human S1P1 receptors (Homo sapiens (Human), UniProt P21453)
Test: Human S1P1 Receptor Calcium FLIPR Antagonist Assay (HeLa Gα16 S1P1)
Format: cell-based
Conditions: relative antagonism vs probing agonist GNF-AC-1 at EC80, HeLa-S1P1/Gα16 cells
Description: Human S1P1 Receptor Calcium FLIPR Antagonist Assay
The assay measures intracellular changes of Ca^2+ mediated by the synthetic probing agonist 3-{[2-(2-Trifluoromethyl-biphenyl-4-yl)-benzo[b]thiophen-5-ylmethyl]-amino}-propionic acid (GNF-AC-1) in the HeLa-S1P1/Gα16 cell clone 1: HeLa (human cervix carcinoma, ATCC CCL2) cells stably expressing N-terminally myc-tagged human S1P1 receptors (GenBank™ accession No. NM_001400; UNIPROT P21453) and promiscuous Gα16 protein (GenBank™ accession number M63904, Swissprot P30679) are cultured at 37° C., 5% CO2, and 95% relative humidity. The cells are plated in 384 well black plates (10′000 cells per well). After 24 hours the cells are loaded with Fluo-4-AM (1.6 μM in HBSS and 2.5 mM probenicid) for 1 hour at 37° C. After washing, the cells are transferred to the FLIPR. The test compounds are added at different concentrations (≦100 μM) in HBSS in the presence of 0.1% BSA and changes in fluorescence are recorded (indication of agonism). The probing agonist is added 20-30 minutes afterwards to the wells at a concentration giving 80% of the maximal activity (EC80). After each addition, time points are collected as follows: 20 time points (2 seconds) before the addition of the agonist (Fmin) and 60 time points (1 or 2 seconds) after the addition of the probing agonist. This allows the determination of the maximal fluorescence (Fmax). The ratio (Fmax−Fmin)/Fmin is plotted against the log of the concentration of the test compounds and the IC50 (relative antagonism) is calculated using the XLfit-4 software. […] A concentration-response curve of the probing agonist is determined on each plate in parallel.

Chain of human S1P1 receptors (P21453 whole entry): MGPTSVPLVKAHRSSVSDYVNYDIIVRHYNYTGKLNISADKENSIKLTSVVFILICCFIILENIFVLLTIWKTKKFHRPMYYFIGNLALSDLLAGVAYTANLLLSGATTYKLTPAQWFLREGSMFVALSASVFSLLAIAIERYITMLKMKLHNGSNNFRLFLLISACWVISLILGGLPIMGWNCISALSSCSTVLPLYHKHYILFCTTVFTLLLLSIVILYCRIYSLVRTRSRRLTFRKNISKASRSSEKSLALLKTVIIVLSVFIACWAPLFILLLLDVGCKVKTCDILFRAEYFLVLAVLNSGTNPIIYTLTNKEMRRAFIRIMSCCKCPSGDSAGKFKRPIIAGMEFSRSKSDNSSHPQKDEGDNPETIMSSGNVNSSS

Row | Compound | IC50
1 | CC[C@@H](Nc1ccc(C)c(CN(C)CCC(=O)O)c1)c1cc(C)c(Cl)c(C)c1 [Example 82, 3-({5-[(R)-1-(4-Chloro-3,5-dimethyl-phenyl)-propylamino]-2-methyl-benzyl}-methyl-amino)-propionic acid] | 3 nM
2 | Cc1cc([C@H](Nc2cccc(CN3CC(C(=O)O)C3)c2C)C(F)(F)F)ccc1Cl [Example 39, 1-{3-[(S)-1-(4-Chloro-3-methyl-phenyl)-2,2,2-trifluoro-ethylamino]-2-methyl-benzyl}-azetidine-3-carboxylic acid] | 0.8 nM
3 | CC[C@@H](Nc1cc(CN2CC(C(=O)O)C2)c(F)cn1)c1ccc(Cl)c(C)c1 [Example 54, 1-{2-[(R)-1-(4-Chloro-3-methyl-phenyl)-propylamino]-5-fluoro-pyridin-4-ylmethyl}-azetidine-3-carboxylic acid] | 0.9 nM
4 | CC[C@@H](Nc1cc(CN2CC(C(=O)O)C2)c(Cl)cn1)c1ccc(Cl)c(C)c1 [Example 79, 1-{5-Chloro-2-[(R)-1-(4-chloro-3-methyl-phenyl)-propylamino]-pyridin-4-ylmethyl}-azetidine-3-carboxylic acid] | 0.6 nM
5 | Cc1cc([C@H](Nc2ccc(C)c(CN3CCC(C)(C(=O)O)C3)c2)C(F)(F)F)ccc1Cl (stereo partly drawn) [Example 83, 1-{5-[(S)-1-(4-Chloro-3-methyl-phenyl)-2,2,2-trifluoro-ethylamino]-2-methyl-benzyl}-3-methyl-pyrrolidine-3-carboxylic acid] | 2.9 nM
6 | Cc1cc([C@H](Nc2ccc(Cl)c(CN3CC(C(=O)O)C3)c2)C(C)C)cc(C)c1Cl [Example 64, 1-{2-Chloro-5-[(R)-1-(4-chloro-3,5-dimethyl-phenyl)-2-methyl-propylamino]-benzyl}-azetidine-3-carboxylic acid] | 1.7 nM
7 | CCC(Nc1ccc(C)c(C(C)N2CC(C(=O)O)C2)c1)c1ccc(Cl)c(C)c1 (centres unmarked) [Example 10, 1-(1-{5-[1-(4-Chloro-3-methyl-phenyl)-propylamino]-2-methyl-phenyl}-ethyl)-azetidine-3-carboxylic acid] | 1.6 nM
8 | Cc1cc([C@@H](C)Nc2ccc(Cl)c(CN3CC[C@@H](C(=O)O)C3)c2)cc(C)c1Cl [Example 46, (R)-1-{2-Chloro-5-[(R)-1-(4-chloro-3,5-dimethyl-phenyl)-ethylamino]-benzyl}-pyrrolidine-3-carboxylic acid] | 1.3 nM
9 | CCC(Nc1cc(C)cc(CN2CC(C(=O)O)C2)c1)c1ccc(Cl)c(C)c1 (centres unmarked) [Example 9, 1-{3-[1-(4-Chloro-3-methyl-phenyl)-propylamino]-5-methyl-benzyl}-azetidine-3-carboxylic acid] | 0.4 nM
10 | CC[C@@H](Nc1cc(CNCCC(=O)O)c(Cl)cn1)c1ccc(Cl)c(C)c1 [Example 58, 3-({5-Chloro-2-[(R)-1-(4-chloro-3-methyl-phenyl)-propylamino]-pyridin-4-ylmethyl}-amino)-propionic acid] | 0.1 nM
11 | CCc1ccc(N[C@H](CC)c2ccc(Cl)c(C)c2)cc1CN1CC[C@@H](C(=O)O)C1 [Example 36, (R)-1-{5-[(R)-1-(4-Chloro-3-methyl-phenyl)-propylamino]-2-ethyl-benzyl}-pyrrolidine-3-carboxylic acid] | 3.7 nM
12 | CC[C@@H](Nc1cccc(CN2CC(C(=O)O)C2)n1)c1ccc(Cl)c(C)c1 [Example 74, 1-{6-[(R)-1-(4-Chloro-3-methyl-phenyl)-propylamino]-pyridin-2-ylmethyl}-azetidine-3-carboxylic acid] | 14.1 nM
13 | Cc1cc([C@H](Nc2ccc(Cl)c(CN3CC(C(=O)O)C3)c2)C(F)(F)F)ccc1Cl [Example 68] | 0.7 nM
14 | CC[C@@H](Nc1cccc(CN2CC(C(=O)O)C2)c1F)c1ccc(Cl)c(C)c1 [Example 24, 1-{3-[(R)-1-(4-Chloro-3-methyl-phenyl)-propylamino]-2-fluoro-benzyl}-azetidine-3-carboxylic acid] | 1.9 nM
15 | CC[C@@H](Nc1cccc(CN2CC(C(=O)O)C2)c1)c1cc(C)c(Cl)c(C)c1 [Example 18, 1-{3-[(R)-1-(4-Chloro-3,5-dimethyl-phenyl)-propylamino]-benzyl}-azetidine-3-carboxylic acid] | 1.9 nM
16 | CC[C@@H](Nc1ccc(C)c(CNC[C@@H](C)C(=O)O)c1)c1cc(C)c(Cl)c(C)c1 [Example 49, (R)-3-(5-[(R)-1-(4-Chloro-3,5-dimethyl-phenyl)-propylamino)-2-methyl-benzylamino]-2-methyl-propionic acid] | 2.4 nM

Row | Compound | IC50
17 | Cc1cc([C@H](Nc2ccc(C)c(CNCCC(=O)O)c2C)C(F)(F)F)ccc1Cl [Example 40, 3-{3-[(S)-1-(4-Chloro-3-methyl-phenyl)-2,2,2-trifluoro-ethylamino]-2,6-dimethyl-benzylamino}-propionic acid] | 0.4 nM
18 | CC[C@@H](Nc1ccc(C)c(CNC[C@H](C)C(=O)O)c1)c1cc(C)c(Cl)c(C)c1 [Example 81, (S)-3-{5-[(R)-1-(4-Chloro-3,5-dimethyl-phenyl)-propylamino]-2-methyl-benzylamino}-2-methyl-propionic acid] | 3.9 nM
19 | CC[C@@H](Nc1cccc(CN2CC[C@@H](C(=O)O)C2)c1F)c1ccc(Cl)c(C)c1 [Example 25, (R)-1-{3-[(R)-1-(4-Chloro-3-methyl-phenyl)-propylamino]-2-fluoro-benzyl}-pyrrolidine-3-carboxylic acid] | 3.3 nM
20 | CC[C@@H](Nc1cc(CN2CC(C(=O)O)C2)ccc1F)c1ccc(Cl)c(C)c1 [Example 26, 1-{3-[(R)-1-(4-Chloro-3-methyl-phenyl)-propylamino]-4-fluoro-benzyl}-azetidine-3-carboxylic acid] | 2.1 nM
21 | CCC(c1cccc(N[C@H](CC)c2ccc(Cl)c(C)c2)c1)N1CC(C(=O)O)C1 (stereo partly drawn) [Example 13, 1-(1-{3-[(R)-1-(4-Chloro-3-methyl-phenyl)-propylamino]-phenyl}-propyl)-azetidine-3-carboxylic acid] | 4.7 nM
22 | CCc1ccc(N[C@@H](c2ccc(Cl)c(C)c2)C(F)(F)F)cc1CN1CC(C(=O)O)C1 [Example 35, 1-{5-[(S)-1-(4-Chloro-3-methyl-phenyl)-2,22-trifluoro-ethylamino]-2-ethyl-benzyl}-azetidine-3-carboxylic acid] | 1.8 nM
23 | CCC(Nc1cc(C)cc(CN2CC[C@@H](C(=O)O)C2)c1)c1ccc(Cl)c(C)c1 (stereo partly drawn) [Example 15, (R)-1-{3-[1-(4-Chloro-3-methyl-phenyl)-propylamino]-5-methyl-benzyl}-pyrrolidine-3-carboxylic acid] | 2.3 nM
24 | Cc1cc([C@H](Nc2cccc(CN3CC(C(=O)O)C3)c2)C(F)(F)F)ccc1Cl [Example 67, 1-{3-[(S)-1-(4-Chloro-3-methyl-phenyl)-2,2,2-trifluoro-ethylamino]-benzyl}-azetidine-3-carboxylic acid] | 0.8 nM
25 | CCC(Nc1cccc(CN2CC(C(=O)O)C2)c1)c1ccc(Cl)c(C)c1 (centres unmarked) [Example 2, 1-{3-[1-(4-Chloro-3-methyl-phenyl)-propylamino]-benzyl}-azetidine-3-carboxylic acid] | 3.5 nM
26 | Cc1cc([C@H](Nc2ccc(Cl)c(CN3CC(C(=O)O)C3)c2)C(C)C)ccc1Cl [Example 63, 1-{2-Chloro-5-[(R)-1-(4-chloro-3-methyl-phenyl)-2-methyl-propylamino]-benzyl}-azetidine-3-carboxylic acid] | 1.1 nM
27 | CC[C@@H](Nc1ccc(C)c(CN2CC(C)(C(=O)O)C2)c1)c1ccc(Cl)c(C)c1 [Example 28, 1-{5-[(R)-1-(4-Chloro-3-methyl-phenyl)-propylamino]-2-methyl-benzyl}-3-methyl-azetidine-3-carboxylic acid] | 0.8 nM
28 | CC[C@@H](Nc1ccc(C)c(CNCC(C)(C)C(=O)O)c1)c1cc(C)c(Cl)c(C)c1 [Example 80, 3-{5-[(R)-1-(4-Chloro-3,5-dimethyl-phenyl)-propylamino]-2-methyl-benzylamino}-2,2-dimethyl-propionic acid] | 24.5 nM
29 | CC[C@@H](Nc1cc(CN2CC[C@@H](C(=O)O)C2)c(C)cn1)c1ccc(Cl)c(C)c1 [Example 60, (R)-1-{2-[(R)-1-(4-Chloro-3-methyl-phenyl)-propylamino]-5-methyl-pyridin-4-ylmethyl}-pyrrolidine-3-carboxylic acid] | 2.1 nM
30 | CC[C@@H](Nc1cccc(CN2CC(C(=O)O)C2)c1)c1ccc2c(Cl)cccc2c1 [Example 20, 1-{3-[(R)-1-(5-Chloro-naphthalen-2-yl)-propylamino]-benzyl}-azetidine-3-carboxylic acid] | 2 nM
31 | Cc1cc([C@H](Nc2ccc(C(F)(F)F)c(CN3CC(C(=O)O)C3)c2)C(F)(F)F)ccc1Cl [Example 69, 1-{5-[(S)-1-(4-Chloro-3-methyl-phenyl)-2,2,2-trifluoro-ethylamino]-2-trifluoromethyl-benzyl}-azetidine-3-carboxylic acid] | 0.8 nM
32 | Cc1cc(C(Nc2cccc(CN3CC(C(=O)O)C3)c2)C(C)C)ccc1Cl (centres unmarked) [Example 17, 1-{3-[1-(4-Chloro-3-methyl-phenyl)-2-methyl-propylamino]-benzyl}-azetidine-3-carboxylic acid] | 1.6 nM
